Measurements reported in patent publication US20110015393A1, “PHTHALAZINONE COMPOUND” (ASTRAZENECA AB, priority 2009, published 2011).

Tests used:
HeLa cells = assay: Potentiation Factor (PF50): MMS growth inhibition, SRB assay; format: cell-based; details: MMS 0 to 10 μg/ml, ratio of IC50 of control cell growth to IC50 of cell growth + PARP inhibitor
Experimental: The Potentiation Factor (PF50) for compounds is calculated as a ratio of the IC50 of control cell growth divided by the IC50 of cell growth+PARP inhibitor. Growth inhibition curves for both control and compound treated cells are in the presence of the alkylating agent methyl methanesulfonate (MMS). The test compound was used at a fixed concentration of 30 nM and 200 nM. The concentrations of MMS were over a range from 0 to 10 μg/ml. Cell growth was assessed using the sulforhodamine B (SRB) assay (Skehan, P., et al., (1990) New colorimetric cytotoxicity assay for anticancer-drug screening. J. Natl. Cancer Inst. 82, 1107-1112.). 2,000 HeLa cells were seeded into each well of a flat-bottomed 96-well microtiter plate in a volume of 100 μl and incubated for 6 hours at 37° C. Cells were either replaced with media alone or with media containing PARP inhibitor at a final concentration of 30 nM or 200 nM. Cells were allowed to grow for a further 1 hour before the addition of MMS at a range of concentrations (typically 0, 1, 2, 3, 5, 7 and 10 μg/ml) to either untreated cells or PARP inhibitor treated cells. Cells treated with PARP inhibitor alone were used to assess the growth inhibition by the PARP inhibitor. […] Plates were gently shaken and left at room temperature for 30 minutes before measuring the optical density at 564 nm on a Microquant microtiter plate reader.

[1] = target: T1, Mammalian PARP, isolated from Hela cell nuclear extract (Homo sapiens, UniProt P09874); assay: PARP inhibition assay (FlashPlate, 3H-NAD incorporation); format: biochemical; details: PARP enzyme activity; NAD 5 μM, 30° C., 45 minutes
T1 construct: isolated from Hela cell nuclear extract; endogenous in cells; host or cells: HeLa cell nuclear extract
Experimental: In order to assess the inhibitory action of compound 1, the following assay was used to determine the IC50 value.
Mammalian PARP, isolated from Hela cell nuclear extract, was incubated with Z-buffer (25 mM Hepes (Sigma); 12.5 mM MgCl2 (Sigma); 50 mM KCl (Sigma); 1 mM DTT (Sigma); 10% Glycerol (Sigma) 0.001% NP-40 (Sigma); pH 7.4) in 96 well FlashPlates (TRADE MARK) (NEN, UK) and varying concentrations of said inhibitors added. The compound was diluted in DMSO and gave final assay concentrations of between 10 and 0.01 μM, with the DMSO being at a final concentration of 1% per well. The total assay volume per well was 40 μl.
After 10 minutes incubation at 30° C. the reactions were initiated by the addition of a 10 μl reaction mixture, containing NAD (5 μM), ^3H-NAD and 30 mer double stranded DNA-oligos. Designated positive and negative reaction wells were done in combination with compound wells (unknowns) in order to calculate % enzyme activities. The plates were then shaken for 2 minutes and incubated at 30° C. for 45 minutes. […]
The plates were transferred to a TopCount NXT (TRADE MARK) (Packard, UK) for scintillation counting. Values recorded are counts per minute (cpm) following a 30 second counting of each well.
The % enzyme activity for the compound is then calculated using the following equation: […]

P-glycoprotein = target: T2, P-glycoprotein (Homo sapiens, UniProt P08183); assay: P-gp substrate activity: Dose Modification Ratio in KBA1 cells with/without Verapamil, SRB assay; format: in vitro ADME; details: IC50 in absence of Verapamil divided by IC50 in presence of 20 μM Verapamil, 5 days, DMR <1.5 = not a P-gp substrate
T2 construct: Hela cell line known as KBA1, which expressed high P-glycoprotein; endogenous in cells; host or cells: KBA1 cells (HeLa-derived, high P-gp); matched non-expressing line KB31
Experimental: Cells from the Hela cell line known as KBA1, which expressed high P-glycoprotein (ABC1a and ABC1b transporter glycoproteins also known as MDR1a and MDR1b) and the matched non-P-glycoprotein expressing line known as KB31, were seeded onto 96 well tissue culture plates with 80 μl per well of 1.00×10^4 cells/ml=800 cells/well [DMEM, 10% FBS, PSG] and left to adhere for 4 hours. After the incubation period 10 μl per well of 200 μM Verapamil (giving a final conc. of 20 μM) a known inhibitor of P-gp or vehicle media were added to various wells of the cell plates. The 96 well plates were left in the incubator for 1 hour prior to 10 μl of test compound (or the known substrate Etoposide as a reference control) or 10 μl PBS/1% DMSO vehicle (control wells) being added into either Verapamil containing or media control wells. […]
The cell plates were then incubated for 5 days prior to cell growth being assessed using the Sulforhodamine B (SRB) assay as described previously. The P-gp substrate activity for each compound was calculated using the cell growth activity of the tests compounds on the KBA1 cells in the presence or absence (control wells) of Verapamil. The Dose Modification Ratio (DMR) is calculated from the KBA1 where for each test compound a ratio of the IC50 of the compound in the absence of Verapamil is divided by the IC50 of cell growth in the presence of Verapamil. […]

T2 sequence (P08183 whole entry): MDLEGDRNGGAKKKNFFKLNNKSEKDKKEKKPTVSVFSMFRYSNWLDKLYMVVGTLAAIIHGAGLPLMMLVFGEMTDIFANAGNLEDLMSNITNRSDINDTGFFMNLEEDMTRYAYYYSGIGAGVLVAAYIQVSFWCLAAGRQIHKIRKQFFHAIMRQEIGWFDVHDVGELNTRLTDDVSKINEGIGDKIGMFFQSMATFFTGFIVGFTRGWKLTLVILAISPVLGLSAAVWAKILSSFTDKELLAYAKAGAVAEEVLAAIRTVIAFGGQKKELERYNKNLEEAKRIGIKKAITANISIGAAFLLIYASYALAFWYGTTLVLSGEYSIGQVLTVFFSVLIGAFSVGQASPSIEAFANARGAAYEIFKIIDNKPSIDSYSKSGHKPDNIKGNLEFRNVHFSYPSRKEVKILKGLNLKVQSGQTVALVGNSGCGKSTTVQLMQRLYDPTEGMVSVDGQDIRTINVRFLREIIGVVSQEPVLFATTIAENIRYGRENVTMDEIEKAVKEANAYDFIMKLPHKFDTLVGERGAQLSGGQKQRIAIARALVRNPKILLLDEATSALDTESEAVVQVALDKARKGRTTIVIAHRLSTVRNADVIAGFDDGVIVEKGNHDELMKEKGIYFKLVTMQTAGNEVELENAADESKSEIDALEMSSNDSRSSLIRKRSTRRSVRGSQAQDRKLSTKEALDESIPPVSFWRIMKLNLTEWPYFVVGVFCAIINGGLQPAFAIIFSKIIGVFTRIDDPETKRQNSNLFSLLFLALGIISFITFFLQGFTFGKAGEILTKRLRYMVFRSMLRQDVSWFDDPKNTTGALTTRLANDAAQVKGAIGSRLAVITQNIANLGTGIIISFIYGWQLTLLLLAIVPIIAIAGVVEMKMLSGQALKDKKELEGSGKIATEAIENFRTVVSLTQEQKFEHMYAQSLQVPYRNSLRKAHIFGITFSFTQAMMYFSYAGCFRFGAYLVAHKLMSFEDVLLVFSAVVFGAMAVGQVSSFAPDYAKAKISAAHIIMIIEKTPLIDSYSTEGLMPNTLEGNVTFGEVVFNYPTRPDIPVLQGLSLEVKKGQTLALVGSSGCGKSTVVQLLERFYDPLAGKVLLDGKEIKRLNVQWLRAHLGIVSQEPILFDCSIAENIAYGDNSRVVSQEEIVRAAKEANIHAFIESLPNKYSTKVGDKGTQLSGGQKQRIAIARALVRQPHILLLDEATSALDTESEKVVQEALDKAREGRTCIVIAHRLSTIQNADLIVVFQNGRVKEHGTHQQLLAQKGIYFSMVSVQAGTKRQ
T1 sequence (P09874 whole entry): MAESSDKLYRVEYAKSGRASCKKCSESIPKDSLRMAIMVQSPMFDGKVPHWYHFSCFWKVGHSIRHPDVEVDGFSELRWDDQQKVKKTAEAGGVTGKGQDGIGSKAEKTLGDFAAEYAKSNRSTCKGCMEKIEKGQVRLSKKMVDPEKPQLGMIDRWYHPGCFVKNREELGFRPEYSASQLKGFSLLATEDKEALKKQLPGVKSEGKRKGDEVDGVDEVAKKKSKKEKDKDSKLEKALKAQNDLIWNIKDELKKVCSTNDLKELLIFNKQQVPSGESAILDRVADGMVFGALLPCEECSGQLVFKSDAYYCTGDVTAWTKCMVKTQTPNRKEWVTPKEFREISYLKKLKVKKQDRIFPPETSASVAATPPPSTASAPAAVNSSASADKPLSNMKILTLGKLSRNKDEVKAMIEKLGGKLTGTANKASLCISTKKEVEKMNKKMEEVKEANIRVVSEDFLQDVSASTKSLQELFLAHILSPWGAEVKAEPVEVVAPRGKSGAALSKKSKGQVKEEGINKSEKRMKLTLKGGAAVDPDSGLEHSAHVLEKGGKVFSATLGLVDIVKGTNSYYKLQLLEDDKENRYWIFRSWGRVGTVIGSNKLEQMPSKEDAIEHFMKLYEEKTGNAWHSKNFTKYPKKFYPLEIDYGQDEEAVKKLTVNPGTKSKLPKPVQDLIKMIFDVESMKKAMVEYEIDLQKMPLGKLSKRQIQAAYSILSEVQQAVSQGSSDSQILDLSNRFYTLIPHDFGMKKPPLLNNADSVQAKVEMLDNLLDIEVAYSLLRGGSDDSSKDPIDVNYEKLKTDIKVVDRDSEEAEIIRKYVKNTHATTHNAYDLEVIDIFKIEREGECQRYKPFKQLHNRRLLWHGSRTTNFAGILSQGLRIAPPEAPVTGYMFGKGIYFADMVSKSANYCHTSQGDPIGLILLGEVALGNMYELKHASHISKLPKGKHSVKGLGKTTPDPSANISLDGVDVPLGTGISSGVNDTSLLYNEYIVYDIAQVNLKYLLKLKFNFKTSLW

COC1CCN(C(=O)c2cc(Cc3n[nH]c(=O)c4ccccc34)ccc2F)CC1 [Compound 1, 4-(4-Fluoro-3-(4-methoxypiperidine-1-carbonyl)benzyl)phthalazin-1(2H)-one]
PF50 at 30 nM (HeLa cells; test compound fixed at 30 nM): 3.0 | PF50 at 200 nM (HeLa cells; test compound fixed at 200 nM): 15 | IC50 [1]: ~5 nM | Dose Modification Ratio (DMR) (P-glycoprotein): 1.3
